{"source": "patent US12109204B2", "about": "“Methods for treating muscular dystrophies” (The Regents of the University of California, priority 2018, dated 2024)", "type_in_all_cases": "cell-based, murine", "key": {"[1]": {"tested_on": "SSPN protein", "assay": "SSPN protein immunoblot in mdx myotubes", "settings": "mdx cells, 48 hours, immunoblot normalized to GAPDH (FIG. 10f)", "experimental": "C2C12 cells (American Type Culture Collection) were grown at 37° C. with 5% CO2 in growth media containing DMEM (Gibco) with 20% FBS (Sigma-Aldrich). Upon reaching confluency, the media was replaced with differentiation media containing DMEM with 2% horse serum (Sigma-Aldrich). Conditionally immortalized H2K mdx myoblast cells with a nonsense mutation in exon 23 of dystrophin were a gift from Terrance Partridge, Ph.D. (Children's National Medical Center, Washington, D.C.). Cells were allowed to proliferate on 0.01% gelatin (Sigma-Aldrich) coated plates at 33° C. with 5% CO2 with growth media containing DMEM, 20% HI-FBS (Invitrogen), 2% L-glutamine (Sigma-Aldrich), 2% chicken embryo extract (Accurate Chemical), 1% penicillin-streptomycin (Sigma-Aldrich), and 20U/ml of fresh interferon gamma (Gibco). […] The supernatant was collected, quantified for protein concentration using the DC protein assay (Bio-Rad), and normalized to 2 mg/ml in water and Laemmli sample buffer with a final concentration of 10% glycerol (Sigma-Aldrich), 5% beta-mercaptoethanol (Sigma-Aldrich), 3% sodium dodecyl sulfate (Sigma-Aldrich), and 0.05% bromophenol blue (Sigma-Aldrich). […] Autoradiography films were developed using a SRX-101A tabletop processor (Konica Minolta), scanned to a digital file, and analyzed by densitometry of bands using ImageJ version 1.51s. […]"}, "[2]": {"tested_on": "UTRN, utrophin", "assay": "UTRN gene expression by qPCR in C2C12 wild-type myotubes", "settings": "C2C12 wild-type myotubes, 48 hours, normalized to β-actin (FIG. 12a)", "experimental": "RNA from myotubes treated for 48 hours was extracted from cells using Trizol-based (Thermo Fisher Scientific) phase separation. RNA concentrations were determined using a NanoDrop 1000 (Thermo Fisher Scientific) and 750 ng of RNA in a 20 μl reaction was reverse transcribed using iScript cDNA synthesis (Bio-Rad) with the following cycling conditions: 25° C. for 5 minutes, 42° C. for 30 minutes, 85° C. for 5 minutes. For quantitative PCR, SsoFast EvaGreen Supermix (Bio-Rad), 400 nM of each optimized forward and reverse primer (for primer descriptions see Table 1), and cDNA corresponding to 37.5 ng RNA were used to amplify cDNA measured by Applied Biosystems 7300 (Thermo Fisher Scientific) with the following reaction conditions: 55° C. for 2 minutes, 95° C. for 2 minutes, 40 cycles of 95° C. for 10 seconds and 62° C. for 30 seconds, and dissociation stage. Each sample was run in triplicate. Data was analyzed using the ddCT method and normalized to reference gene, GAPDH or β-actin, with vehicle-treated samples serving as the calibrator (relative expression of vehicle control=1). C2C12 cells (American Type Culture Collection) were grown at 37° C. with 5% CO2 in growth media containing DMEM (Gibco) with 20% FBS (Sigma-Aldrich). Upon reaching confluency, the media was replaced with differentiation media containing DMEM with 2% horse serum (Sigma-Aldrich). […]"}, "[3]": {"tested_on": "C2C12 wild-type myotubes", "assay": "Fusion index and myotube morphology in wild-type myotubes"}}, "data": [{"smiles": "CCOC(=O)C1=C(C)NC(C)=C(C(=O)OC)C1c1cccc(Cl)c1Cl", "note": "(centres unmarked) [Felodipine, 5-O-ethyl 3-O-methyl 4-(2,3-dichlorophenyl)-2,6-dimethyl-1,4-dihydropyridine-3,5-dicarboxylate]", "values": [{"measurement": "SSPN protein levels", "setting": "[1]", "value": "increases sarcospan protein levels"}, {"measurement": "SSPN protein levels", "setting": "[1]; listed as felodipine", "value": "increased SSPN protein levels"}, {"measurement": "utrophin gene expression", "setting": "[2]", "value": "increases"}, {"measurement": "fusion index (nuclei in myosin heavy chain positive area/total nuclei in field)", "setting": "[3]; wild-type myotubes (FIG. 12c-d)", "value": "does not increase fusion index"}, {"measurement": "formation of hypertrophic myotubes", "setting": "[3]; wild-type myotubes (FIG. 12e-f)", "value": "does induce the formation of hypertrophic wild-type myotubes"}]}]}
